Measured values published in ChEMBL document CHEMBL1126422, “The preparation of novel dopamine analogues via palladium catalysed cyclisation reactions” (Bioorg Med Chem Lett, 1992).

Target: D(3) dopamine receptor (Rattus norvegicus, UniProt P19020)
Assay: Compound was tested for binding affinity at the rat Dopamine receptor D3 expressed in Chinese hamster ovary cells; No significant affinity.
Format: cell-based

Chain of D(3) dopamine receptor (P19020 whole entry): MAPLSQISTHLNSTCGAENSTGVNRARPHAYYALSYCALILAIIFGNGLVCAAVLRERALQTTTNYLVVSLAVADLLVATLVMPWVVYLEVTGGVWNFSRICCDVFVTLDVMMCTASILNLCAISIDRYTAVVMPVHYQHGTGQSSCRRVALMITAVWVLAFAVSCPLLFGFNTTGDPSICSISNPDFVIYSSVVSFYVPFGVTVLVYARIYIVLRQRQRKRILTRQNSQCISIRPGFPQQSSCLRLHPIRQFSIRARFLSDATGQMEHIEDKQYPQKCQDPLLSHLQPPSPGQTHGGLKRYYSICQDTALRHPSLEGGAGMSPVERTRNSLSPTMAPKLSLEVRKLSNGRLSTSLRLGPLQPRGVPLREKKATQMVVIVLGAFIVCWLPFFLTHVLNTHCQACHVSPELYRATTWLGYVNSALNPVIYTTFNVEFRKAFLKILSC

Structure (SMILES)	Log Ki
C=C1c2ccccc2OC[C@@H]1NCCC.Cl	> -6.5
CCCN[C@H]1COc2ccccc2[C@@H]1C.Cl	< -6.5
